The values that follow come from US4716230A, “Certain bis(di-2 or 4-pyridyl-phosphino) alkanes #10 having anti-tumor properties” (Smithkline Beckman Corporation, priority 1986, dated 1987).

Data set [1] deals with P388 leukemia. The data set is described as follows: in vivo ip P388 lymphocytic leukemia mouse model (increase in lifespan). Further details: species or system mouse (B6D2F1). As to conditions: mice bearing ip P388 leukemia; ip Days 1-5; figures separated by slashes are from separate experiments; active if ≥25 percent ILS. From the text:
P388 lymphocytic leukemia is currently the most widely used animal tumor model for screening for antitumor agents and for detailed evaluation of active compounds. This tumor system is widely accepted as an antitumor agent screening tool because it is sensitive to virtually all of the clinically active antineoplastic agents; quantitative and reproducible; amenable for large-scale screening; and predictive for activity in other animal tumor models.
(§1) 10^6 P388 leukemia cells are inoculated ip in B6D2F1 mice. Twenty-four hours later, if the tumor inoculum proves to be free of bacterial contamination (as determined by 24 hours incubation in thioglycollate broth), animals are randomized into groups of 6 and housed in shoebox cages. The compound to be evaluated is dissolved in a minimal volume of either N,N-dimethylacetamide (DMA) or 95% ethanol (depending upon solubility). An equal volume of saline is added; if the drug comes out of solution an equal volume of polyethoxylated castor oil is added and then saline qs to a concentration such that the desired dose is delivered in 0.5 ml. The final concentration of DMA, ethanol and polyethoxylated castor oil is […]. Dilutions for lower doses are made with saline so there is a decreasing proportion of organic solvents in the vehicle with decreasing dosage. These vehicles provide soluble formulations (or suspensions). Formulations are prepared immediately prior to injection. The compound is administered ip on Days 1 through 5 (i.e. treatment is initiated 24 hrs after tumor inoculation). Each experiment includes three groups of 6 animals as untreated controls and animals treated with a positive control, cisplatin, at two dose levels. Animals are weighed as a group on Days 1, 5 and 9 and average weight change (Δwt.) is used as a reflection of toxicity. Each experiment also includes an inoculum titration--groups of 8 mice inoculated ip with 10^5 to […] P388 leukemia cells. The titration is used to calculate cell kill achieved by treatment with drugs. Animals are monitored daily for mortality and experiments are terminated after 45 days. The endpoint is median survival time (MST) and increase in lifespan (ILS) which is the percentage of increase in MST relative to untreated controls. Untreated controls inoculated ip with 10^6 P388 leukemia cells generally survive for a median of 9 or 11 days. A drug is considered active if it produces ≥25 percent ILS.
^(b) maximum increase in lifespan produced in mice bearing ip P388
leukemia (figures separated by slashes indicate data generated in seperat

Data set [2] can be described thus: maximally tolerated dose in mice, ip qD × 5 regimen. The settings on record: mouse, in vivo, B6D2F female mice. As to the method: as §1
^(a) maximally tolerated dose for B6D2F female mice on an ip qD

For data set [3] the following is noted: Struck et al., J. Med. Chem., 9, 414-416 (1966); cited from earlier work.

Values joined by “and” are separate entries in the source; they are usually repeats but may differ in a detail not shown here. Identical values can stand only once.

On to `c1ccc(P(CCP(c2ccccn2)c2ccccn2)c2ccccn2)nc1` [Compound 1, 1,2-Bis(di-2-pyridylphosphino)ethane], for which the “ILS (max) (maximum increase in lifespan)” value in data set [1] is 30% and 20%. Further, the maximal tolerated dose (MTD) in data set [2] came to 16 mg/kg.

Turning to `c1cc(P(CCP(c2ccncc2)c2ccncc2)c2ccncc2)ccn1` [Compound 2, 1,2-Bis(di-4-pyridylphosphino)ethane], the “ILS (max) (maximum increase in lifespan)” value in data set [1] was 35% and 37%. Further, the MTD in data set [2] was 32 mg/kg.

`c1coc(P(CCP(c2ccco2)c2ccco2)c2ccco2)c1` [Compound 4, 1,2-Bis(di-2-furylphosphino)ethane]: the “ILS (max) (maximum increase in lifespan)” value in data set [1] is 60% and 30% and 50%. This compound also showed an MTD in data set [2] of 64 mg/kg.

On to `c1csc(P(CCP(c2cccs2)c2cccs2)c2cccs2)c1` [Compound 3, 1,2-Bis(di-2-thienylphosphino)ethane], for which the “ILS (max) (maximum increase in lifespan)” value in data set [1] is 60% and 55%. Further, in data set [2], the MTD stood at 16 mg/kg.

Consider `c1ccc(P(CCP(c2ccccc2)c2ccccc2)c2ccccc2)cc1` [1,2-bis(diphenylphosphino)ethane], for which the cytotoxic activity entry in data set [3] was “cytotoxic activity”.
